Measurements: paper PMC5104457, “ATP-Competitive MLKL Binders Have No Functional Impact on Necroptosis” (PLoS ONE, 2016)
pEC50, pIC50, pKd: −log10 of the molar value. “Also recorded” adds a separate entry of the source.

Experiments:
kinase domain of RIPK1 = biological target: T1, kinase domain of RIPK1 (Homo sapiens, UniProt Q13546); assay: Differential scanning fluorimetry (thermal shift), RIPK1 kinase domain; assay type: binding; conditions: 10 μM compound, 1 μM protein, average of triplicates
T1 construct: The kinase domain of RIPK1; made in house
T1 sequence (Q13546 17-289 limits assumed): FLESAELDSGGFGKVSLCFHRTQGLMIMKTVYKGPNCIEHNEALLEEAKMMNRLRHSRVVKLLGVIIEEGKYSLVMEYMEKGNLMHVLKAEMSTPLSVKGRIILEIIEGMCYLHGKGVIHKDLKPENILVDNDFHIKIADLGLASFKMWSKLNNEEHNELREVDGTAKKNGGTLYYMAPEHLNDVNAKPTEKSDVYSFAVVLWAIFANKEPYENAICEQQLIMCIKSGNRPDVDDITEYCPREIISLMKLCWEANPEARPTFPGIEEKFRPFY
Experimental: (§1) To measure the thermal stabilization of the proteins upon compound binding we employed differential scanning fluorimetry (DSF). The kinase domain of RIPK1 and the N-terminal domain HSP90α were expressed and purified as previously described. The pseudokinase MLKL-1, RIPK1 and Hsp90 were melted at 1μM final concentrations in 25mM HEPES pH 8.0, 250mM NaCl and 2.5mM DTT. Compounds were added to a final concentration of 10 μ M with a final DMSO concentration of 5%. The complexes were incubated on ice for 30 minutes. Protein Thermal Shift dye (Life Technologies) was added to 1X. The fluorescence intensities were measured using a Quantstudio real-time PCR system (Life Technologies) with excitation at 470 nm and emission at 586 nm. The samples, measured in triplicate, were heated from 25 to 85°C with a heating rate of […].

pseudokinase MLKL-1 = biological target: T2, pseudokinase MLKL-1 (Homo sapiens, UniProt Q8NB16); assay: Differential scanning fluorimetry (thermal shift), MLKL pseudokinase domain; assay type: binding; conditions: 10 μM compound, 1 μM protein, average of triplicates; read-out: MLKL Pseudo-kinase thermal shift at 10 μM
T2 construct: sub-cloning residues 191 to 471 of the pseudokinase domain of human MLKL cDNA; His6 (thrombin cleavable) (N); made in house; host or cells: Escherichia coli BL21 (DE3)
T2 sequence (Q8NB16 191-471): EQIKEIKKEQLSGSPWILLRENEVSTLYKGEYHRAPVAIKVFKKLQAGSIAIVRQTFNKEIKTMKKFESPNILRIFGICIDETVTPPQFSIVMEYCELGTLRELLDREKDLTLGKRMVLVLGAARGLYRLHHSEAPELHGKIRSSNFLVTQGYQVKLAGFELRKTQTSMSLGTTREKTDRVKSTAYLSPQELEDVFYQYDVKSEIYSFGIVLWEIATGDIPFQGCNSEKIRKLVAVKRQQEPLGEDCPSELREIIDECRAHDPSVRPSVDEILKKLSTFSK
Source text: MLKL-1 was constructed by sub-cloning residues 191 to 471 of the pseudokinase domain of human MLKL cDNA into a pET15b vector with a thrombin cleavable N-terminal six histidine fusion tag (His-MLKL-1). MLKL-2 had the same protein boundaries and fusion tag system as MLKL-1 but the dual mutations E366A and K367A were introduced using site directed mutagenesis and was expressed in the same vector (His-MLKL-2).
as §1

FADD (-/-) Jurkat cells [1] = assay: Necroptosis assay: rescue from TNF-α induced cell death; assay type: cell-based; conditions: FADD deficient Jurkat cells; for pIC50: TNF-α 15 ng/ml overnight, average of duplicates, read-out: Necroptosis cell IC50
Experimental: Necroptosis assays were performed at Charles River Laboratories (United Kingdom) and at Biogen. […] On the day of the experiment, cells were counted using Nexcelom Bioscience Cell Meter Vision and pelleted by centrifugation. Cell pellets were resuspended in fresh medium at 500,000 cells per mL and transferred to assay-ready compound plates prepared in 384-well white TC plates (Greiner #781080) at 20μl cells per well. Cells and compound were incubated at room temperature for 30 minutes followed by +/- stimulation with 15ng/ml TNF-α (Cell signalling Technologies #8902LF) overnight at 37°C. In the morning, plates were equilibrated to room temperature for 30 minutes and 25μl of CellTiter-Glow (CellTiter-Glo 2.0 Assay, Promega # G9243) diluted 1:4 in PBS was added to each well and allowed to incubate for 10 minutes at room temperature. Luminescence was read on an Envision plate reader (Perkin Elmer).
TNF-α added to these cells induces necroptosis or cell death. The term “Rescue” refers to the ability of a compound to prevent loss of cell viability in the presence of TNF. Definitions of the presence or absence of compound or TNF stimulation in the wells that were used to calculate degree of rescue or viability is defined in Table 1.
100% percent rescue is defined as the value of the “no TNF” wells minus the value of wells treated with “TNF”.
Percent Rescue is then the ratio of the intensity value of the experimental “well” minus the value of “TNF” treated wells divided by the overall difference between the value of “no TNF” treated wells and the value of “TNF” treated wells.
%rescue=((well - TNF)/(no TNF - TNF))x100

[2] = tested on: RIPK3 phosphorylation of MLKL in 293T cells; assay: MLKL phosphorylation assay (MSD), RIPK3-dependent phospho Ser358; assay type: cell-based, human; conditions: 293T cells with GFP-MLKL and RIPK3-mCherry, 30 min compound, normalized to DMSO
Experimental: The cDNA clones of human MLKL (RC213152) and human RIPK3 (RC209549) were purchased from Origene. To generate GFP-MLKL and RIPK3-mCherry, coding sequences of the corresponding cDNA sequences were PCR amplified and cloned into Biogen’s mammalian expression vector.
293T cells grown in 10 cm plates were transfected with GFP-MLKL alone or both GFP-MLKL and RIPK3-mCherry plasmids. After 24 hours, cells were harvested and replated into poly D lysine coated 96W plate with 20,000 cells/ml. Four hours later, cells were treated with MLKL compounds for 30 min and incubated at 37°C. Thirty minutes later, the media was removed and cells were lysed in 150μl of Cell lysis buffer (Cell Signaling, MA) containing both protease and phosphatase inhibitors. The lysates were transferred to 96 well MSD plates (Meso Scale Discovery, MD) that were precoated with anti-mouse MLKL antibody H00197259-M02, 3B2, Novus Biologicals, CO), and incubated overnight at 4°C. After washing the plates three times with 1x MSD wash buffer (50mM TRIS-HCl, 150mM NaCl, 0.02% Tween 20, pH7.5), 100 μl of 0.5μg/ml of rabbit-anti-MLKL phospho Ser358 (Abcam AB187091) was added to each well. The plates were incubated for 2 hours at room temperature. After three washes with MSD wash buffer, 100 μ l of 0.5ug/ml of SULFO-tag labeled anti-rabbit IgG was added to each well and incubated for 1 hour at room temperature. After three washes, 1x Read bufferT (Meso Scale Discovery, MD) was added and the electrochemiluminescence (ECL) was measured with a MSD Sector Imager 600.

full length MLKL = biological target: T3, full length MLKL (Homo sapiens, UniProt Q8NB16); assay: KINOMEscan ATP-competitive probe displacement (competition binding) assay, MLKL; conditions: for pKd: average of duplicates
T3 construct: purchased DiscoverX (KINOMEscan service); host or cells: HEK-293
T3 sequence (Q8NB16 1-471): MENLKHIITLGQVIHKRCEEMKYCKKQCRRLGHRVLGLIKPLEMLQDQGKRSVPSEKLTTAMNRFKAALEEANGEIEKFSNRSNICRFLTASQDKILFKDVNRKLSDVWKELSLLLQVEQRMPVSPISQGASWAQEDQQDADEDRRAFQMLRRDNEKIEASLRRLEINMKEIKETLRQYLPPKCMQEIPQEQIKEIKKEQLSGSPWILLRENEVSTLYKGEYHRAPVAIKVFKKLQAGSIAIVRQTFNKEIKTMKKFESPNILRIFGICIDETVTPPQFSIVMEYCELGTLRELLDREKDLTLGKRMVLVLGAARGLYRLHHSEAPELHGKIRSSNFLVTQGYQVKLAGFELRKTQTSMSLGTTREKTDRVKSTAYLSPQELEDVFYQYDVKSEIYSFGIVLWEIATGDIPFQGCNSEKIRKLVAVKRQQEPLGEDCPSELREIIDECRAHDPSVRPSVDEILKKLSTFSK
Experimental: Compound binding constants (KDs) were determined at DiscoverX using their KINOMEscan assay platform. […] Briefly, full length MLKL was expressed in HEK-293 cells as a fusion with an NFκB DNA binding domain and subsequently tagged with a qPCR detection amplicon via interaction with NFκB. […] Twenty microliters of binding reactions were carried out in 384-well polypropylene plates for 1 hour at room temperature. Beads were subsequently washed and resuspended in elution buffer for 30 minutes at room temperature with shaking. The concentration of MLKL in the eluates was measured by qPCR and compound binding constants were calculated using a standard dose-response curve.
(§2) A similar approach was used to measure binding affinities for RIPK1 and RIPK3 kinase domains.

RIPK1 kinase domain = biological target: T4, RIPK1 kinase domain (Homo sapiens, UniProt Q13546); assay: ATP-competitive probe displacement assay, RIPK1; assay type: binding; conditions: for pKd: average of duplicates; for weaker potency to RIPK1 relative to MLKL: RIPK1 KD versus MLKL KD
T4 construct: purchased DiscoverX
T4 sequence (Q13546 17-289 limits assumed): T1 sequence (Q13546 17-289 limits assumed)
Experimental: (§3) Compound binding constants (KDs) were determined at DiscoverX using their KINOMEscan assay platform. This competition binding assay was previously described in Karaman et al. (2008)[18]. Briefly, full length MLKL was expressed in HEK-293 cells as a fusion with an NFκB DNA binding domain and subsequently tagged with a qPCR detection amplicon via interaction with NFκB. […] Twenty microliters of binding reactions were carried out in 384-well polypropylene plates for 1 hour at room temperature. Beads were subsequently washed and resuspended in elution buffer for 30 minutes at room temperature with shaking. The concentration of MLKL in the eluates was measured by qPCR and compound binding constants were calculated using a standard dose-response curve.
as §2

RIPK3 kinase domain = biological target: T5, RIPK3 kinase domain (Homo sapiens, UniProt Q9Y572); assay: ATP-competitive probe displacement assay, RIPK3; assay type: binding
T5 construct: purchased DiscoverX
Experimental: as §3, §2

FADD (-/-) Jurkat cells [3] = assay: Viability experiment in the absence of TNF; assay type: cell-based; conditions: FADD deficient Jurkat cells, no TNF, Fig 3F
Experimental: Necroptosis assays were performed at Charles River Laboratories (United Kingdom) and at Biogen. […] On the day of the experiment, cells were counted using Nexcelom Bioscience Cell Meter Vision and pelleted by centrifugation. Cell pellets were resuspended in fresh medium at 500,000 cells per mL and transferred to assay-ready compound plates prepared in 384-well white TC plates (Greiner #781080) at 20μl cells per well. Cells and compound were incubated at room temperature for 30 minutes followed by +/- stimulation with 15ng/ml TNF-α (Cell signalling Technologies #8902LF) overnight at 37°C. In the morning, plates were equilibrated to room temperature for 30 minutes and 25μl of CellTiter-Glow (CellTiter-Glo 2.0 Assay, Promega # G9243) diluted 1:4 in PBS was added to each well and allowed to incubate for 10 minutes at room temperature. Luminescence was read on an Envision plate reader (Perkin Elmer). Percent viability values are calculated from separate dose response experiments identical to the percent rescue experiment except that no TNF is added to the cells. This assay is intended to identify compounds that not only don’t rescue, but are toxic themselves. 100% Viability is defined as the intensity value of the “no TNF” wells, cell treated with neither compound nor TNF. […]

T5 sequence (Q9Y572 21-287 limits assumed): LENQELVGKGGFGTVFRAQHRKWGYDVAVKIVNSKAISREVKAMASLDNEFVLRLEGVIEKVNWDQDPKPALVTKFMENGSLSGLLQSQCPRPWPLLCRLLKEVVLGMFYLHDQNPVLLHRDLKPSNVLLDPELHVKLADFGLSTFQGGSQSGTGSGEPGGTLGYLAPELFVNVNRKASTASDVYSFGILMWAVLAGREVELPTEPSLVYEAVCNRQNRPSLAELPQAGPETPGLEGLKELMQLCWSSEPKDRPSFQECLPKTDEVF

Structure (SMILES)	ΔTm at 10 µM (kinase domain of RIPK1)	ΔTm at 10 µM (pseudokinase MLKL-1)	pIC50 (FADD (-/-) Jurkat cells [1]; Homo sapiens)	effect on RIPK3-dependent phosphorylation of MLKL (phospho Ser358, in words) [2]	pKd (RIPK1 kinase domain)	pKd (full length MLKL)	weaker potency to RIPK1 relative to MLKL (RIPK1 kinase domain)	also measured
C[C@@H](Oc1cc(-c2cnn(C3CCNCC3)c2)cnc1N)c1c(Cl)ccc(F)c1Cl [Crizontinib, reference compound]	0.75 °C	5.63 °C	< 4.40	does not impact its phosphorylation	–	–	–	rescue of cells from necroptosis (in words) (FADD (-/-) Jurkat cells [1]; dose-response, Fig 3): does not rescue cells from necroptosis
CC(C)S(=O)(=O)c1ccc2nccc(Nc3ccc4scnc4c3)c2c1 [GSK872]	–	–	–	completely inhibited; also recorded: inhibits phosphorylation of MLKL	–	–	–	–
COc1nccnc1NS(=O)(=O)c1ccc(NC(=O)/C=C/c2ccc([N+](=O)[O-])s2)cc1 [NSA, Necrosulfonamide, reference compound]	0.15 °C	0.67 °C	6.70	–	< 4.52	–	–	displacement of the ATP probe from MLKL (in words) (full length MLKL; data not shown): not to displace the ATP probe; displacement of the ATP probe from / binding to RIPK1 (in words) (RIPK1 kinase domain): not to displace the ATP probe; displacement of the ATP probe from / binding to RIPK3 (in words) (RIPK3 kinase domain): not to displace the ATP probe; pKd (RIPK3 kinase domain; average of duplicates): < 4.52
CN1C(=O)C(Cc2c[nH]c3ccccc23)NC1=S (stereo not shown) [Nec1s, Necrostatin, reference compound]	–	–	–	–	–	–	–	pEC50 (FADD (-/-) Jurkat cells [1]; Homo sapiens, TNF stimulation): 6.30; effect on cell viability in the absence of TNF stimulation (in words) (FADD (-/-) Jurkat cells [3]): does not effect cell viability
CC(=O)Nc1ccc(N(C)c2ccnc(Nc3cccc(S(N)(=O)=O)c3)n2)cc1 [cpd 2]	0 °C	2.93 °C	< 4.40	–	< 5.00	6.11	at least 10 fold	–
CN(c1ccc(N)cc1)c1ccnc(Nc2cccc(S(N)(=O)=O)c2)n1 [cpd 3]	0.31 °C	1.57 °C	< 4.40	–	< 5.00	6.06	at least 10 fold	–
